Measurements taken from patent publication EP1379135B1, “FORMULATIONS COMPRISING ENTRAPPED ACTIVE INGREDIENTS AND USES THEREOF” (THE SCRIPPS RESEARCH INSTITUTE, priority 2001, dated 2002).

What was measured:
iNOS protein = iNOS protein expression (Western Immunoblot); assay type: cell-based, human
Protocol: (§1) Whole cell extracts were prepared from 3 x 10^6 chondrocytes stimulated as described above by lysing the cells on the plate with ice cold lysis buffer (10 mM TrisHCl pH 7.6, 158 mM NaCl, 1 mM EDTA, 0.1% SDS, 1% Triton X-100, leupeptin […], aprotinin 1µg/ml, and 0.5 mM PMSF), which was added immediately before use. The lysates were transferred to Eppendorf tubes and centrifuged at 20,000 g for 30 min at 4 °C. The supernatants were transferred into fresh tubes, and the protein concentration was determined by Bradford assay. Similar amounts of protein were separated by 10% SDS PAGE and transferred to a nitrocellulose filter (Schleicher & Schuell, Keene, NH) by electroblotting. The filter was blocked overnight in 5% milk powder/TBS-T solution and then further incubated with one of the following antibodies: anti-iNOS (C-19, Santa Cruz Biotechnology, Inc., Santa Cruz, CA), anti-COX-2 (Cayman Chemical, Ann Arbor, MI), anti-COX-1 (H-3, Santa Cruz Biotechnology, Inc.), anti-phospho-JNK (phosphoThr 183 /Tyr 185, New England Biolabs, Inc., Beverly, MA), anti-phospho-p38MAP (phospho-Thr […]/Tyr 182, New England Biolabs, Inc.) or anti-phospho-ERK (phosphoThr 180/Tyr 182, New England Biolabs, Inc.) for 2 hrs. […]

[1] = In vivo retention of GlcNAc in knee joints after intra-articular administration; parameters: species or system Wistar rats
Protocol: 50 µl of GlcNAc solution (unlabeled 2.69 mg/ml, labeled 5 µCi/ml, unlabeled:labeled molecule 10,000:1) was injected into knee joint of six rats. These rats (2 animals/time point) were sacrificed at 0, 30 min, and 2 hr after administration of a GlcNAc solution. Two other two rats were injected with normal saline as negative controls. All joints were removed and homogenized with 5 ml of normal saline at 16,000 rpm for about 30 sec. 100 µl of the tissue homogenate was added to 500 µl tissue solubilizer. The solution was incubated at 50 °C for 16 hrs, mixed with 30 µl of glacial acetic acid and 5 ml of liquid scintillation cocktail. The [^3H]GlcNAc activity was measured by a liquid scintillation counter.
Fourteen rats were used for each liposomal formulation. 50 µl of liposome (prepared as disclosed herein, 1.13 µCi/ml, GlcNAc concentration was 0.61 mg/ml, unlabeled:labeled molecule 10,000:1) was injected into each knee joint in twelve rats. Another two rats were injected with 50 µl of normal saline as negative controls. Animals (2 rats/time point) were sacrificed at time points corresponding to 0, 1, 3, 7, 14, 21, and 28 days after administration of GlcNAc. The knee joints were removed and [^3H]GlcNAc activity was determined as disclosed herein.

IL-6 = IL-6 production in IL-1β stimulated chondrocytes (ELISA); assay type: cell-based, human; settings: p < 0.001
Protocol: Chondrocytes were plated at 40,000 cells/well in 96-well plates in the presence of 1 % FBS. After 48 h, the medium was changed, and the cells were stimulated with IL-1β (Sigma) at a concentration of 5 ng/ml for 24 h. NO production was detected as NO2 accumulation in the culture supernatants by the Griess reaction as described elsewhere (Heval et al., (1994) Methods Enzymol. 233:250). IL-6 in the culture supernatants was measured by ELISA (R&D Systems, Minneapolis, MN) in accordance with the supplier's protocol.

COX-2 mRNA = COX-2 mRNA expression in IL-1β stimulated chondrocytes (Northern Blot); assay type: cell-based, human
Protocol: Total RNA was isolated from 2 x 10^6 chondrocytes stimulated using the STAT-60 reagent (Tel-Test, Friendswood, TX). RNA for each sample was quantified photometrically, and 5 µg was separated on 1.2% agarose, 6% formaldehyde gels. After electrophoresis, the gels were photographed, and the RNA was transferred onto HybondN nylon membranes (BRL, Baithesburg, MD) by capillary blotting. Membranes were air-dried and incubated for 2 hrs at 80°C. Prehybridization was done for 2 hrs at 60°C in 5 x SCC, 1 mM EDTA, 0.2% SDS and 5 x Denhardt solution. Radio-labeled probe was added and hybridization was carried out overnight at 60°C. After hybridization, the filters were rinsed twice in 2 x SSC, 0.1% SDS, washed once in 2 x SCC, 0.1 % SDS at 60°C and once in 0.2 x SCC, 0.1 % SDS at 60°C. The membranes were covered with plastic wrap and exposed with an intensifying screen for 12 hr at -70°C. The probes used for the hybridization were prepared as described earlier (Geng et al., (1993) J. Immunol. 151:6692; Geller et al., (1993) Proc. Natl. Acad. Sci. USA 90:3491).

p38 = assay: IL-1β induced MAP kinase activation, p38 (phospho Western blot); assay type: cell-based, human; settings: induced by IL-1β
Protocol: as §1

COX-1 protein = COX-1 protein expression in chondrocytes (Western Immunoblot); assay type: cell-based, human
Protocol: as §1

JNK = assay: IL-1β induced MAP kinase activation, JNK (phospho Western blot); assay type: cell-based, human; settings: induced by IL-1β
Protocol: as §1

CC(=O)N[C@H]1C(O)O[C@H](CO)[C@@H](O)[C@@H]1O (some centres unmarked) [GlcNAc, N-acetylglucosamine]
expression of iNOS protein (iNOS protein): strongly inhibited | half-life ([1]; Wistar, rat, knee joint homogenate, 0.1345 mg per knee joint, single intra-articular administration, saline solution): 4.1 min | GlcNAc retention at the rat knee joints ([1]; after intra-articular administration): moved out of the rat joint rapidly | IL-6 production (IL-6): inhibited | expression of COX-2 mRNA (COX-2 mRNA): inhibited | p38 MAP kinase activation (p38): does not inhibit | expression of the constitutively expressed COX-1 protein (COX-1 protein): did not affect | JNK MAP kinase activation (JNK): does not inhibit
